Literature values in patent US6727104B2, “Microcolumn chromatographic immunoassays” (The Board of Regents of the University of Nebraska, priority 2001, dated 2004).
Like-named read-outs stand apart in the source and are kept apart here.

What was measured:
[1] = biological target: Thyroxine-Binding Prealbumin (Homo sapiens, UniProt P02766)
[2] = biological target: T1, Thyroxine-Binding Globulin (Homo sapiens, UniProt P05543); conditions: T4 Binding Site
T1 sequence (P05543 21-415): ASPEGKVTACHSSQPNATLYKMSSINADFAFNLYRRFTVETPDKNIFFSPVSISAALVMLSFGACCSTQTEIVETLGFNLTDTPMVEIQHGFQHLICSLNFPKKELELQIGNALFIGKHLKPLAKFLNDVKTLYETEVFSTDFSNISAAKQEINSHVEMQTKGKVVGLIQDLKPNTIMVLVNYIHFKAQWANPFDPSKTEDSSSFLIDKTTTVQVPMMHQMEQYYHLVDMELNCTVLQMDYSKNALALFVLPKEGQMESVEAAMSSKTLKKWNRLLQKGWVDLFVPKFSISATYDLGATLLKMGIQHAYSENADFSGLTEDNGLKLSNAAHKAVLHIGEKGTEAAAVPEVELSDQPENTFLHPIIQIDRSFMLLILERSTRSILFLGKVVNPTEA

## N[C@@H](Cc1cc(I)c(Oc2cc(I)c(O)c(I)c2)c(I)c1)C(=O)O [T4, L-Thyroxine]
[1]; High Affinity Site
  Ka: 1e+07 M⁻¹
[1]; Low Affinity Site
  Ka: 300000 M⁻¹
[2]
  Ka: 1e+10 M⁻¹
